# Patent US20120258990A1 (priority 2009, published 2012)
# System: Plasmopara viticola
# Assay: Plasmopara viticola/Grape/Curative (Grape Downy Mildew)
# Format: in vivo
# Conditions: 200 ppm; grape seedlings cv. Gutedel, inoculated one day before application, assessed 4-6 days after application
# Description: Plasmopara viticola/Grape/Curative (Grape Downy Mildew)
# 5-week-old grape seedlings cv. Gutedel are inoculated by spraying a sporangia suspension on their lower leaf surface one day before application. The inoculated grape plants are sprayed in a spray chamber with the formulated test compound diluted in water. The inoculated test plants are incubated at 22° C. and 100% rh in a greenhouse and the percentage leaf area covered by disease is assessed when an appropriate level of disease appears on untreated check plants (4-6 days after application).
smiles,measurement,value
"Cc1cc(C(F)(F)F)nn1CC(=O)N(C)CCCc1nc(C(=O)N(C)[C@@H]2CCCc3ccccc32)cs1 [Compound I.d.55, 2-(3-{methyl-[2-(5-methyl-3-trifluoromethyl-pyrazol-1-yl)-acetyl]-amino}-propyl)-thiazole-4-carboxylic acid methyl-(R)-1,2,3,4-tetrahydro-naphthalen-1-yl-amide]",disease control,at least 80%
